Data reported in patent EP0448765A1, “Use of guanidine derivatives for the manufacture of a medicament with NPY-antagonistic activity” (HEUMANN PHARMA GMBH & CO, priority 1990, dated 1991).

Biological target: T1, spezifischen NPY-Rezeptors (Homo sapiens, UniProt P25929)
T1 construct: intrazellulären Ca⁺⁺-Konzentration in HEL-Zellen (Human Erythroleukemia-Zellen) fluorimetrisch mit Fura-2 als Indikator gemessen; endogenous in cells; host or cells: HEL (human erythroleukemia) cells
T1 sequence (P25929 1-384): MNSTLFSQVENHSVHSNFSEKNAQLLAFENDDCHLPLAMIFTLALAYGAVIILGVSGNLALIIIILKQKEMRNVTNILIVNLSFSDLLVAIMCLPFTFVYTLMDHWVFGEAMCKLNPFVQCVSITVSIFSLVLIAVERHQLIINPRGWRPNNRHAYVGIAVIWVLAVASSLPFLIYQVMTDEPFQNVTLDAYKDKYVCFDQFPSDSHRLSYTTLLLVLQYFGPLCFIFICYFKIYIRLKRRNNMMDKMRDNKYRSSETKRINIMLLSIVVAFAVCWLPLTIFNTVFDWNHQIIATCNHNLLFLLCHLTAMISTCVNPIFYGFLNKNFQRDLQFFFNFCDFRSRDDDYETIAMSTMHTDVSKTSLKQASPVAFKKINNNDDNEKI
Assay: Inhibition of the NPY-induced rise of intracellular Ca++ in HEL cells (fluorimetric, Fura-2; method of Motulsky and Michel)
Assay type: cell-based
Settings: HEL-Zellen, antagonists added at 10⁻⁴ bis 10⁻⁶ (unit inferred), Schild-Plot-Analyse, read-out: pA2 Hemmung des Ca^++-Anstieges (converted)
Description: Die Neuropeptid-Y-antagonistische Wirkung der erfindungsgemäß verwendeten Verbindungen wurde anhand der Methode von Motulsky und Michel (Motulsky, H.J., Michel, M.C., Am. J. Physiol. 255, 880 (1988)) nachgewiesen.
Bei dieser Methode wird der durch NPY induzierte Anstieg der intrazellulären Ca⁺⁺-Konzentration in HEL-Zellen (Human Erythroleukemia-Zellen) fluorimetrisch mit Fura-2 als Indikator gemessen. Unter den gegebenen Bedingungen bewirkt NPY einen konzentrationsabhängigen Anstieg der intrazellulären Ca⁺⁺-Konzentration über die Stimulation des spezifischen NPY-Rezeptors.
Zur Messung der Hemmwirkung der zu testenden Antagonisten werden diese in Konzentrationen von 10⁻⁴ bis 10⁻⁶ dem Inkubationsmedium zugesetzt. Dann wird erneut eine NPY-Wirkungskurve bestimmt.
Die erfindungsgemäß verwendeten Guanidinverbindungen verschieben die NPY-Konzentrationswirkungskurve nach rechts. Die Rechtsverschiebung ist nach Schild-Plot-Analyse kompetitiv. Die Substanzen antagonisieren demnach die NPY-Wirkung durch Konkurrenz am spezifischen NPY-Rezeptor.

Kb | Compound
9.12 µM | Cc1cc(Br)cnc1CCCCNC(=N)NCCCc1c[nH]cn1 [Verbindung D, N¹-[4-(5-Brom-3-methyl-pyridin-2-yl)butyl]-N²-[3-(1H-imidazol-4-yl)propyl]-guanidin]
1.32 µM | Cc1cc(Br)cnc1N(CCNC(=N)NCCCc1c[nH]cn1)Cc1ccccc1 [Verbindung C, N¹-[2-[N-(5-Brom-3-methyl-pyridin-2-yl)benzylamino]-ethyl]-N²-[3-(1H-imidazol-4-yl)propyl]-guanidin]
100 µM | N=C(NCCCc1c[nH]cn1)NCCOC(c1ccccc1)c1ccccc1 [Verbindung A, N¹-[3-(1H-Imidazol-4-yl)propyl]-N²-[2-(diphenylmethoxy)ethyl]-guanidin]
19.1 µM | N=C(NCCCc1c[nH]cn1)NCCC(c1cc(F)cc(F)c1)c1ccccn1 (stereo not shown) [Verbindung B, N¹-[3-(3,5-Difluorphenyl)-3-(pyridin-2-yl)propyl]-N²-[3-(1H-imidazol-4-yl)propyl]-guanidin]
